Source: US20130072427A1, “GPR 119 MODULATORS” (Pfizer Inc., priority 2009, published 2013)
Where “and” joins values, the source holds several entries; their conditions need not be identical. Equal entries are not always repeated.

Experiments:
human GPR119 [1] = target: T1, human GPR119 (Homo sapiens, UniProt Q8TDV5); assay: Beta-arrestin functional assay (DiscoverX PathHunter U2OS hGPR119 β-arrestin cells); format: cell-based; design: Emax: dose or concentration left out as unconfirmed; settings: one line per run; for EC50: U2OS hGPR119 β-arrestin cells, 90 minute incubation, read-out: Human B-arrestin Functional EC50; for Emax: U2OS, percent of maximal activity relative to standard GPR119 agonist (WO2005121121) at 10 microM, read-out: Intrinsic Activity* (%) (B-arrestin)
T1 construct: host or cells: U2OS
Method: GPR119 agonist activity was also determined with a cell-based assay utilizing DiscoverX PathHunter β-arrestin cell assay technology and their U2OS hGPR119 β-arrestin cell line (DiscoverX Cat #93-0356C3). In this assay, agonist activation is determined by measuring agonist-induced interaction of β-arrestin with activated GPR119. A small, 42 amino acid enzyme fragment, called ProLink was appended to the C-terminus of GPR119. Arrestin was fused to the larger enzyme fragment, termed EA (Enzyme Acceptor). Activation of GPR119 stimulates binding of arrestin and forces the complementation of the two enzyme fragments, resulting in formation of a functional β-galactosidase enzyme capable of hydrolyzing substrate and generating a chemiluminescent signal.
Specifically, U2OS hGPR119 β-arrestin cells (DiscoverX 1×10^7/ml) are removed from cryopreservation and diluted in growth medium (Minimum essential medium (MEM; Gibco Cat #11095-080), 10% heat inactivated fetal bovine serum (HIFBS; Sigma Cat #F4135-100), 100 mM sodium pyruvate (Sigma Cat #S8636), 500 microg/mL G418 (Sigma Cat #G8168) and 250 microg/mL Hygromycin B (Invitrogen Cat #10687-010). The cell concentration was adjusted to 1.66×10^5 cells/ml and 30 mls of this suspension was added to a T-175 flask and incubated at 37 degrees Celsius in a humidified environment in 5% carbon dioxide. After 48 hours, the cells were removed from the T-175 flask with enzyme-free cell dissociation buffer (Gibco cat #13151-014), centrifuged at 800×g and then re-suspended in plating medium (Opti-MEM I (Invitrogen/BRL Cat #31985-070) and 2% charcoal dextran treated fetal bovine serum (CD serum; HyClone Cat #SH30068.03). The cell concentration was adjusted to 2.5×10^5 cells/ml with plating medium and 10 microL of this cell suspension (2500 cells) was added to each well of a white Greiner 384-well low volume assay plate (VWR cat #82051-458) and the plates were incubated at 37 degrees Celsius in a humidified environment in 5% carbon dioxide.
After 16 hours (overnight) the assay plates were removed from the incubator and varying concentrations of each compound to be tested (diluted in assay buffer (1×HBSS+CaCl2+MgCl2 (Gibco Cat #14025-092), 20 mM HEPES pH 7.0 (Gibco Cat #15630-080) and 0.1% BSA (Sigma Cat #A9576)) were added to the assay plate wells in a volume of 2.5 microL (final DMSO concentration was 0.5%). After a 90 minute incubation at 37 degrees Celsius in a humidified environment in 5% carbon dioxide, 7.5 microL of Galacton Star β-galactosidase substrate (PathHunter Detection Kit (DiscoveRx Cat #93-0001); prepared as described in the manufacturers assay protocol) was added to each well of the assay plate. The plates were incubated at room temperature and after 60 minutes, changes in the luminescence were read with an Envision 2104 multilabel plate reader at 0.1 seconds per well. EC50 determinations were made from an agonist-response curves analyzed with a curve fitting program using a 4-parameter logistic dose response equation.
T1 sequence (P32121 whole entry partner, one chain of several): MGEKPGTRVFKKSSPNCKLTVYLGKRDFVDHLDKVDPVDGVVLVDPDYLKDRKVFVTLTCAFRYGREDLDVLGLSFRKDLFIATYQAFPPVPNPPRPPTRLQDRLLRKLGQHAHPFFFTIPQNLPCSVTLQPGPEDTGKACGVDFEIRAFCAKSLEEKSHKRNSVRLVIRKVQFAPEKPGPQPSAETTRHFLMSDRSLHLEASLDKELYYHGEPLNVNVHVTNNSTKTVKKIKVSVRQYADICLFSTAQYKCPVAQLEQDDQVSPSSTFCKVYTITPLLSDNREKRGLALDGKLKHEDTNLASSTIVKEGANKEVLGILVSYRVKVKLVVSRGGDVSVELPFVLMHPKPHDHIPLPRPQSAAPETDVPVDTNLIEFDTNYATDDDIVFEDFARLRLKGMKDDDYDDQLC

human GPR119 [2] = target: T2, human GPR119 (Homo sapiens, UniProt Q8TDV5); assay: Beta-lactamase functional assay (hGPR119 HEK293-CRE beta-lactamase reporter); format: cell-based; settings: one line per run; for EC50: hGPR119 HEK293-CRE beta-lactamase cells, 16 hours incubation, read-out: Human B-lactamase Functional EC50; for Emax: percent of maximal activity relative to standard GPR119 agonist (WO2005121121) at 10 microM, read-out: Intrinsic Activity* (%) (B-lactamase)
T2 construct: host or cells: HEK293-CRE beta-lactamase cells
T2 sequence (Q8TDV5 1-335): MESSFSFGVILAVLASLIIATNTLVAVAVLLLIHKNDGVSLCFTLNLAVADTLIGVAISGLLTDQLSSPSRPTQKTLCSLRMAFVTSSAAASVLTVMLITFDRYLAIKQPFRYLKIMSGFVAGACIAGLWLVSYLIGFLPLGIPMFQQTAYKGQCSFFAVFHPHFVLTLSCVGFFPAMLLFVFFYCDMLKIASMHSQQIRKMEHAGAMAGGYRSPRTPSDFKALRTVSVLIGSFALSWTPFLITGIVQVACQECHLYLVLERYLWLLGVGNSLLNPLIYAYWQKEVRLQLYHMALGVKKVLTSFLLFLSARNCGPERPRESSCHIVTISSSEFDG
Method: The assay for GPR119 agonists utilizes a cell-based (hGPR119 HEK293-CRE beta-lactamase) reporter construct where agonist activation of human GPR119 is coupled to beta-lactamase production via a cyclic AMP response element (CRE). GPR119 activity is then measured utilizing a FRET-enabled beta-lactamase substrate, CCF4-AM (Live Blazer FRET-B/G Loading kit, Invitrogen cat #K1027). Specifically, hGPR119-HEK-CRE-beta-lactamase cells (Invitrogen 2.5×10^7/mL) were removed from liquid nitrogen storage, and diluted in plating medium (Dulbecco's modified Eagle medium high glucose (DMEM; Gibco Cat #11995-065), 10% heat inactivated fetal bovine serum (HIFBS; Sigma Cat #F4135), 1×MEM Nonessential amino acids (Gibco Cat #15630-080), 25 mM HEPES pH 7.0 (Gibco Cat #15630-080), 200 nM potassium clavulanate (Sigma Cat #P3494). The cell concentration was adjusted using cell plating medium and 50 microL of this cell suspension ([…]) was added into each well of a black, clear bottom, poly-d-lysine coated 384-well plate (Greiner Bio-One cat #781946) and incubated at 37 degrees Celsius in a humidified environment containing 5% carbon dioxide. After 4 hours the plating medium was removed and replaced with 40 microL of assay medium (Assay medium is plating medium without potassium clavulanate and HIFBS). Varying concentrations of each compound to be tested was then added in a volume of 10 microL (final DMSO≦0.5%) and the cells were incubated for 16 hours at 37 degrees Celsius in a humidified environment containing 5% carbon dioxide. Plates were removed from the incubator and allowed to equilibrate to room temperature for approximately 15 minutes. 10 microL of 6×CCF4/AM working dye solution (prepared according to instructions in the Live Blazer FRET-B/G Loading kit, Invitrogen cat #K1027) was added per well and incubated at room temperature for 2 hours in the dark. Fluorescence was measured on an EnVision fluorimetric plate reader, excitation 405 nm, emission 460 nm/535 nm. EC50 determinations were made from agonist-response curves analyzed with a curve fitting program using a 4-parameter logistic dose-response equation.

Row | SMILES | EC50 (human GPR119 [1]) | Emax (human GPR119 [1]) [%] | EC50 (human GPR119 [2]) [µM] | Emax (human GPR119 [2]) [%]
1 | Cc1c(O[C@H]2CCN(C(=O)OC(C)(C)C)C[C@H]2F)ncnc1N1Cc2cnn(C)c2C1 (racemic) [Example 6, tert-Butyl (3,4-cis)-3-fluoro-4-{[5-methyl-6-(1-methyl-4,6-dihydropyrrolo[3,4-c]pyrazol-5(1H)-yl)pyrimidin-4-yl]oxy}piperidine-1-carboxylate (racemic)] | 0.019 µM | 67 |  | 
2 | Cc1c(O[C@H]2CCN(C(=O)OC(C)(C)C)C[C@@H]2F)ncnc1N1Cc2cnn(C)c2C1 (racemic) [Example 8, tert-Butyl (3,4-trans)-3-fluoro-4-{[5-methyl-6-(1-methyl-4,6-dihydropyrrolo[3,4-c]pyrazol-5(1H)-yl)pyrimidin-4-yl]oxy}piperidine-1-carboxylate (racemic)] | 0.081 µM and 0.754 µM |  |  | 
3 | Cc1c(O[C@H]2[C@@H]3COC[C@H]2CN(C(=O)OC(C)(C)C)C3)ncnc1N1Cc2cnn(C)c2C1 [Example 9, tert-Butyl (9-anti)-9-{[5-methyl-6-(1-methyl-4,6-dihydropyrrolo[3,4-c]pyrazol-5(1H)-yl)pyrimidin-4-yl]oxy}-3-oxa-7-azabicyclo[3.3.1]nonane-7-carboxylate] | 0.056 µM | 70 |  | 
4 | CC(C)OC(=O)N1CCC(Oc2ncnc(N3Cc4cnn(C)c4C3)c2C#N)CC1 [Example 3, Isopropyyl 4-{[5-cyano-6-(1-methyl-4,6-dihydropyrrolo[3,4-c]pyrazol-5(1H)-yl)pyrimidin-4-yl]oxy}piperidine-1-carboxylate] |  |  | 2.05 | 107
5 | Cc1c(O[C@H]2CCN(C(=O)OC3(C)CC3)C[C@H]2F)ncnc1N1Cc2cnn(C)c2C1 (racemic) [Example 7, 1-Methylcyclopropyyl (3,4-cis)-3-fluoro-4-{[5-methyl-6-(1-methyl-4,6-dihydropyrrolo[3,4-c]pyrazol-5(1H)-yl)pyrimidin-4-yl]oxy}piperidine-1-carboxylate (racemic)] | 0.023 µM | 77 |  | 
6 | Cc1c(OC2CCN(C(=O)OC(C)C)CC2)ncnc1N1Cc2cnn(C)c2C1 [Example 2, Isopropyyl 4-{[5-methyl-6-(1-methyl-4,6-dihydropyrrolo[3,4-c]pyrazol-5(1H)-yl)pyrimidin-4-yl]oxy}piperidine-1-carboxylate] |  |  | 0.662 | 103
